Assay results: patent US4180658A, “7[-2-Alkoxyamino(acetamido)]cephalosporin derivatives” (Bristol-Myers Company, priority 1978, dated 1979)
≈ marks a conversion by molar mass, not a printed value. Where two headings read alike, the source gives them in different places.

How the values were obtained:
Str. pyogenes = assay: Antibiotic Activity in Nutrient Broth (MIC); assay type: cell-based; conditions: Streptococcus pyogenes, 10^-3 dilution, 45% AAB + 5% serum + 50% broth
Experimental: (§1) Biological testing was performed according to the procedures described by F. Leitner et al., Antimicrobial Agents and Chemotherapy 10(3), 426-435 (September, 1976).
(§2) Antibiotic Activity in Nutrient Broth
(§3) *45% AAB + 5% serum + 50% broth listed above.
(§4) **Dilution of overnight broth culture.

S. pneumoniae = assay: Antibiotic Activity in Nutrient Broth (MIC); assay type: cell-based; conditions: Streptococcus pneumoniae, 10^-3 dilution of overnight broth culture, 45% AAB + 5% serum + 50% broth
Experimental: as §1, §2, §3, §4

Enterobacter species = assay: Secondary in vitro Screening (MIC); assay type: cell-based; conditions: Table 2
Experimental: as §1

Klebsiella pneumoniae = assay: Secondary in vitro Screening (MIC); assay type: cell-based; conditions: Table 2, each line another isolate
Experimental: as §1

Pseudomonas aeruginosa = assay: Secondary in vitro Screening (MIC); assay type: cell-based; conditions: Table 2, each line another isolate
Experimental: as §1

Staphylococcus aureus = assay: Secondary in vitro Screening (MIC); assay type: cell-based; conditions: Table 2, each line another isolate
Experimental: as §1

Ent. cloacae = assay: Antibiotic Activity in Nutrient Broth (MIC); assay type: cell-based
Experimental: as §1, §2, §4

E. coli Juhl = assay: Antibiotic Activity in Nutrient Broth (MIC); assay type: cell-based; conditions: Escherichia coli, 10^-4 dilution
Experimental: as §1, §2, §4

S. aureus Meth-Res = assay: Antibiotic Activity in Nutrient Broth (MIC); assay type: cell-based; conditions: Staphylococcus aureus, 10^-3 dilution
Experimental: as §1, §2, §4

Str. faecalis = assay: Antibiotic Activity in Nutrient Broth (MIC); assay type: cell-based; conditions: Enterococcus faecalis, Table 1, 10^-4 dilution
Experimental: as §1, §2, §4

K. pneumoniae = assay: Antibiotic Activity in Nutrient Broth (MIC); assay type: cell-based; conditions: 10^-4 dilution
Experimental: as §1, §2, §4

Ps. aeruginosa = assay: Antibiotic Activity in Nutrient Broth (MIC); assay type: cell-based; conditions: 10^-4 dilution
Experimental: as §1, §2, §4

S. aureus BX1633 = assay: Antibiotic Activity in Nutrient Broth (MIC); assay type: cell-based; conditions: Staphylococcus aureus
Experimental: as §1, §2, §4

Pr. morganii = assay: Antibiotic Activity in Nutrient Broth (MIC); assay type: cell-based; conditions: Morganella morganii, 10^-4 dilution
Experimental: as §1, §2, §4

S. aureus Smith = assay: Antibiotic Activity in Nutrient Broth (MIC); assay type: cell-based; conditions: Staphylococcus aureus, 10^-4 dilution
Experimental: as §1, §2, §4

Ps. aeruginosa carb. = assay: Antibiotic Activity in Nutrient Broth (MIC); assay type: cell-based; conditions: Pseudomonas aeruginosa, Table 1, 10^-4 dilution
Experimental: as §1, §2, §4

Ser. marcescens = assay: Antibiotic Activity in Nutrient Broth (MIC); assay type: cell-based
Experimental: as §1, §2, §4

Sal. enteritidis = assay: Antibiotic Activity in Nutrient Broth (MIC); assay type: cell-based; conditions: Salmonella enterica, Table 1, 10^-4 dilution
Experimental: as §1, §2, §4

Pr. rettgeri = assay: Antibiotic Activity in Nutrient Broth (MIC); assay type: cell-based; conditions: Providencia rettgeri, Table 1, 10^-4 dilution
Experimental: as §1, §2, §4

Pr. mirabilis = assay: Antibiotic Activity in Nutrient Broth (MIC); assay type: cell-based
Experimental: as §1, §2, §4

Pr. vulgaris = assay: Antibiotic Activity in Nutrient Broth (MIC); assay type: cell-based; conditions: Proteus vulgaris, Table 1, 10^-4 dilution
Experimental: as §1, §2, §4

[1] = Solubility (dosing preparation in phosphate buffer); assay type: physicochemical; conditions: compounds prepared in phosphate buffer for dosing
Text: (§5) Compounds prepared in phosphate buffer and dosed IM at 40 mgm./kg.

Mouse Blood Levels = assay type: in vivo; conditions: im, 40 mg/kg, IM 40 mgm./kg., phosphate buffer; for concentration at 0.25 h: 0.25 hours after administration; for concentration at 0.5 h: 0.5 hours after administration; for concentration at 1 h: 1 hour after administration; for concentration at 1.5 h: 1.5 hours after administration
Experimental: as §1
*Each group consisted of 6 animals and one blood sample was taken from
as §5
Assay Organism: B. subtilis at pH 6.0

Haemophilus influenzae = assay: Secondary in vitro Screening (MIC); assay type: cell-based; conditions: Table 3, each line another isolate
Experimental: as §1

S. aureus = assay: Antibiotic Activity in Nutrient Broth + 50% serum (MIC); assay type: cell-based; conditions: Staphylococcus aureus, Table 1, 10^-4 dilution
Experimental: as §1, §2, §4

[2] = Table 1, second pair of columns
[3] = Enterobacter cloacae, Table 1, 10^-4 dilution, read-out: MIC
[4] = Klebsiella pneumoniae, Table 1, first pair of columns, read-out: MIC
[5] = Pseudomonas aeruginosa, Table 1, first pair of columns, read-out: MIC
[6] = BX1633, Table 1, 10^-2 dilution
[7] = BX1633, Table 1, 10^-3 dilution
[8] = BX1633, Table 1, second pair of columns, 10^-2 dilution
[9] = Serratia marcescens, Table 1, 10^-4 dilution, read-out: MIC
[10] = Table 1, second pair of columns, 10^-4 dilution
[11] = Proteus mirabilis, Table 1, 10^-4 dilution, read-out: MIC
[12] = first pair of lines (Example 1B susp.)
[13] = second pair of lines (Example 1B sol.)

Q: With `CO/N=C(\C(=O)N[C@@H]1C(=O)N2C(C(=O)O)=C(COC(N)=O)CS[C@H]12)c1ccco1` [Cefuroxime, sodium 6R,7R3-carbamoyloxymethyl-7-(2Z)-2-methoxyimino(fur-2-yl)acetamidoceph-3-m-4-carboxylate, reference compound] as the molecule, how does the MIC (Str. pyogenes; Table 1, first pair of columns) read?
A: The MIC was 0.004 µg/mL.

Q: And the MIC (Str. pyogenes; [2])?
A: Its MIC is 0.004 µg/mL.

Q: What about the MIC (S. pneumoniae; Table 1, first pair of columns) of the same molecule?
A: The MIC was 0.004 µg/mL.

Q: What about the MIC (S. pneumoniae; [2]) of the same molecule?
A: The MIC was 0.004 µg/mL.

Q: And the MIC (Enterobacter species)?
A: The MIC was 2 µg/mL.

Q: And the MIC (Klebsiella pneumoniae)?
A: Its MIC is 2 µg/mL.

Q: And the MIC (Pseudomonas aeruginosa)?
A: The MIC was 125 µg/mL.

Q: What about the MIC (Staphylococcus aureus) of the same molecule?
A: Its MIC is 0.5 µg/mL.

Q: And the MIC (Ent. cloacae; [3])?
A: The MIC was over 125 µg/mL.

Q: And the MIC (E. coli Juhl; Table 1, first pair of columns)?
A: The MIC was 4 µg/mL.

Q: What about the MIC (E. coli Juhl; [2]) of the same molecule?
A: Its MIC is 8 µg/mL.

Q: And the MIC (S. aureus Meth-Res; Table 1, first pair of columns)?
A: The MIC was 2 µg/mL.

Q: And the MIC (S. aureus Meth-Res; [2])?
A: Its MIC is over 125 µg/mL.

Q: What about the MIC (Str. faecalis) of the same molecule?
A: Its MIC is over 125 µg/mL.

Q: What about the MIC (K. pneumoniae; [4]) of the same molecule?
A: The MIC was 2 µg/mL.

Q: And the MIC (Ps. aeruginosa; [5])?
A: The MIC was over 125 µg/mL.

Q: And the MIC (S. aureus BX1633; [6])?
A: Its MIC is 0.5 µg/mL.

Q: What about the MIC (S. aureus BX1633; [7]) of the same molecule?
A: Its MIC is 0.5 µg/mL.

Q: What about the MIC (S. aureus BX1633; [8]) of the same molecule?
A: Its MIC is 2 µg/mL.

Q: And the MIC (Pr. morganii; Table 1, first pair of columns)?
A: The MIC was 32 µg/mL.

Q: And the MIC (Pr. morganii; [2])?
A: The MIC was 63 µg/mL.

Q: And the MIC (S. aureus Smith; Table 1, first pair of columns)?
A: The MIC was 0.13 µg/mL.

Q: What about the MIC (S. aureus Smith; [2]) of the same molecule?
A: The MIC was 0.5 µg/mL.

Q: And the MIC (Ps. aeruginosa carb.)?
A: Its MIC is over 1000 µg/mL.

Q: And the MIC (Ser. marcescens; [9])?
A: The MIC was over 125 µg/mL.

Q: And the MIC (Ser. marcescens; [10])?
A: Its MIC is over 125 µg/mL.

Q: What about the MIC (Sal. enteritidis) of the same molecule?
A: The MIC was 0.5 µg/mL.

Q: What about the MIC (Pr. rettgeri) of the same molecule?
A: The MIC was 16 µg/mL.

Q: What about the MIC (Pr. mirabilis; [11]) of the same molecule?
A: The MIC was 0.5 µg/mL.

Q: And the MIC (Pr. mirabilis; [10])?
A: The MIC was 0.5 µg/mL.

Q: And the MIC (Pr. vulgaris)?
A: The MIC was 1 µg/mL.

Q: What about the Solubility [1] of the same molecule?
A: Its Solubility is “sol”.

Q: And the concentration at 0.25 h (Mouse Blood Levels; [12])?
A: The concentration at 0.25 h was 34500 ng/mL.

Q: What about the concentration at 0.25 h (Mouse Blood Levels; [13]) of the same molecule?
A: Its concentration at 0.25 h is 25600 ng/mL.

Q: What about the concentration at 0.5 h (Mouse Blood Levels; [12]) of the same molecule?
A: The concentration at 0.5 h was 26300 ng/mL.

Q: What about the concentration at 0.5 h (Mouse Blood Levels; [13]) of the same molecule?
A: Its concentration at 0.5 h is 20600 ng/mL.

Q: What about the concentration at 1 h (Mouse Blood Levels; [12]) of the same molecule?
A: Its concentration at 1 h is 7600 ng/mL.

Q: And the concentration at 1 h (Mouse Blood Levels; [13])?
A: The concentration at 1 h was 6000 ng/mL.

Q: And the concentration at 1.5 h (Mouse Blood Levels; [12])?
A: Its concentration at 1.5 h is 3100 ng/mL.

Q: And the concentration at 1.5 h (Mouse Blood Levels; [13])?
A: Its concentration at 1.5 h is 2100 ng/mL.

Q: What does the source list for `CO/N=C(\C(=O)N[C@@H]1C(=O)N2C(C(=O)O)=C(CSc3nnnn3CCN)CS[C@H]12)c1ccco1` [Example 1B, 7-(α-Methoxyiminofurylacetamido)-3-(1-[2'-aminoethyl]-tetrazol-5-ylthiomethyl)-3-cephem-4-carboxylic Acid]?
A: MIC (Str. pyogenes; Table 1, first pair of columns): 0.008 µg/mL; MIC (Str. pyogenes; [2]): 0.004 µg/mL; MIC (S. pneumoniae; Table 1, first pair of columns): 0.008 µg/mL; MIC (S. pneumoniae; [2]): 0.004 µg/mL; MIC (Enterobacter species): 2 µg/mL (≈ 3.93 µM); MIC (Klebsiella pneumoniae): 2 µg/mL (≈ 3.93 µM); MIC (Pseudomonas aeruginosa): > 63 µg/mL; MIC (Haemophilus influenzae): 0.5 µg/mL (≈ 0.983 µM); MIC (Ent. cloacae; [3]): 16 µg/mL (≈ 31.5 µM); MIC (Ent. cloacae; [10]): 8 µg/mL (≈ 15.7 µM); MIC (E. coli Juhl; Table 1, first pair of columns): 8 µg/mL (≈ 15.7 µM); MIC (E. coli Juhl; [2]): 2 µg/mL (≈ 3.93 µM); MIC (S. aureus Meth-Res; Table 1, first pair of columns): 2 µg/mL (≈ 3.93 µM); MIC (S. aureus Meth-Res; [2]): > 125 µg/mL; MIC (Str. faecalis): 63 µg/mL (≈ 124 µM); MIC (K. pneumoniae; [4]): 1 µg/mL (≈ 1.97 µM); MIC (K. pneumoniae; Klebsiella pneumoniae, Table 1, second pair of columns, read-out: MIC): 16 µg/mL (≈ 31.5 µM); MIC (K. pneumoniae; Table 1, first pair of columns): 2 µg/mL (≈ 3.93 µM); MIC (K. pneumoniae; [2]): 32 µg/mL (≈ 62.9 µM); MIC (Ps. aeruginosa; [5]): 125 µg/mL (≈ 246 µM); MIC (Ps. aeruginosa; Pseudomonas aeruginosa, Table 1, second pair of columns, read-out: MIC): 63 µg/mL (≈ 124 µM); MIC (Ps. aeruginosa; [2]): 125 µg/mL (≈ 246 µM); MIC (S. aureus BX1633; [6]): 1 µg/mL (≈ 1.97 µM); MIC (S. aureus BX1633; [7]): 0.5 µg/mL (≈ 0.983 µM); MIC (S. aureus BX1633; [8]): 0.5 µg/mL (≈ 0.983 µM); MIC (Pr. morganii; Table 1, first pair of columns): 2 µg/mL (≈ 3.93 µM); MIC (Pr. morganii; [2]): 1 µg/mL (≈ 1.97 µM); MIC (S. aureus Smith; Table 1, first pair of columns): 0.5 µg/mL (≈ 0.983 µM); MIC (S. aureus Smith; [2]): 0.5 µg/mL (≈ 0.983 µM); MIC (Ps. aeruginosa carb.): 250 µg/mL (≈ 492 µM); MIC (Ser. marcescens; [9]): 8 µg/mL (≈ 15.7 µM); MIC (Ser. marcescens; [10]): 8 µg/mL (≈ 15.7 µM); MIC (Sal. enteritidis): ≤ 0.25 µg/mL; MIC (Pr. rettgeri): 1 µg/mL (≈ 1.97 µM); MIC (Pr. mirabilis; [11]): 0.5 µg/mL (≈ 0.983 µM); MIC (Pr. mirabilis; [10]): 0.5 µg/mL (≈ 0.983 µM); MIC (Pr. vulgaris): 0.5 µg/mL (≈ 0.983 µM); Solubility [1]: susp. and sol.; concentration at 0.25 h (Mouse Blood Levels; [12]): 35000 ng/mL; concentration at 0.25 h (Mouse Blood Levels; [13]): 33600 ng/mL; concentration at 0.5 h (Mouse Blood Levels; [12]): 17900 ng/mL; concentration at 0.5 h (Mouse Blood Levels; [13]): 17400 ng/mL; concentration at 1 h (Mouse Blood Levels; [12]): 5400 ng/mL; concentration at 1 h (Mouse Blood Levels; [13]): 3900 ng/mL; concentration at 1.5 h (Mouse Blood Levels; [12]): < 2500 ng/mL; concentration at 1.5 h (Mouse Blood Levels; [13]): < 2600 ng/mL; MIC (S. aureus): 1 µg/mL
